ChEMBL document CHEMBL3044640, “Antifeedant, insect growth regulatory and insecticidal effects of Calceolaria talcana (Calceolariaceae) on Drosophila melanogaster and Spodoptera frugiperda” (2013)
≈ marks a conversion by molar mass, not a printed value. Calls of active or inactive are those of the source. The rule behind the calls is not given here.

Legend:
Spodoptera frugiperda [1] = assay: Insecticidal activity against larvae of Spodoptera frugiperda (fall armyworm) assessed mortality at 20 ppm after 21 days relative to control; assay type: functional; settings: 504 h
Drosophila melanogaster [2] = assay: Antifeedant activity against larvae of Drosophila melanogaster at 25 ug/ml after 12 to 24 hr; assay type: functional
Spodoptera frugiperda [3] = assay: Insecticidal activity against larvae of Spodoptera frugiperda (fall armyworm) assessed growth index at 35 ppm; assay type: functional
Spodoptera frugiperda [4] = assay: Insecticidal activity against larvae of Spodoptera frugiperda (fall armyworm) assessed growth index at 25 ppm relative to control; assay type: functional
Drosophila melanogaster [5] = assay: Insecticidal activity against larvae of Drosophila melanogaster assessed as mortality at 50 ug/ml after 72 hr by not choice test; assay type: functional
Spodoptera frugiperda [6] = assay: Antifeedant activity against larvae of Spodoptera frugiperda (fall armyworm) at 100 ug/ml after 12 to 24 hr; assay type: functional
Spodoptera frugiperda [7] = assay: Antifeedant activity against larvae of Spodoptera frugiperda (fall armyworm) assessed reduction of weight gain at 20 ppm after 21 days relative to control; assay type: functional; design: scale not given: the % may be the effect or the level left
Spodoptera frugiperda [8] = assay: Antifeedant activity against larvae of Spodoptera frugiperda (fall armyworm) assessed reduction of weight gain at 35 ppm after 21 days relative to control; assay type: functional; design: scale not given: the % may be the effect or the level left
Spodoptera frugiperda [9] = assay: Insecticidal activity against larvae of Spodoptera frugiperda (fall armyworm) assessed growth index at 25 ppm; assay type: functional
Spodoptera frugiperda [10] = assay: Antifeedant activity against larvae of Spodoptera frugiperda (fall armyworm) at 50 ug/ml after 12 to 24 hr; assay type: functional
Spodoptera frugiperda [11] = assay: Insecticidal activity against larvae of Spodoptera frugiperda (fall armyworm) assessed mortality at 10 ppm after 21 days relative to control; assay type: functional; settings: 504 h
Spodoptera frugiperda [12] = assay: Antifeedant activity against larvae of Spodoptera frugiperda (fall armyworm) at 25 ug/ml after 12 to 24 hr; assay type: functional
Spodoptera frugiperda [13] = assay: Insecticidal activity against larvae of Spodoptera frugiperda (fall armyworm) assessed mortality at 35 ppm after 21 days relative to control; assay type: functional; settings: 504 h
Spodoptera frugiperda [14] = assay: Insecticidal activity against larvae of Spodoptera frugiperda (fall armyworm) assessed induction of apolysis at 25 ug/ml, po after 21 days; assay type: functional, organism-based
Spodoptera frugiperda [15] = assay: Antifeedant activity against larvae of Spodoptera frugiperda (fall armyworm) assessed reduction of adult emergence at 10 ppm after 21 days relative to control; assay type: functional; design: scale not given: the % may be the effect or the level left
Drosophila melanogaster [16] = assay: Antifeedant activity against larvae of Drosophila melanogaster at 100 ug/ml after 12 to 24 hr; assay type: functional
Spodoptera frugiperda [17] = assay: Insecticidal activity against larvae of Spodoptera frugiperda (fall armyworm) assessed growth index at 50 ppm; assay type: functional
Spodoptera frugiperda [18] = assay: Antifeedant activity against larvae of Spodoptera frugiperda (fall armyworm) at 5 ug/ml after 12 to 24 hr; assay type: functional
Spodoptera frugiperda [19] = assay: Antifeedant activity against larvae of Spodoptera frugiperda (fall armyworm) at 10 ug/ml after 12 to 24 hr; assay type: functional
Spodoptera frugiperda [20] = assay: Insecticidal activity against larvae of Spodoptera frugiperda (fall armyworm) assessed mortality at 50 ppm after 21 days relative to control; assay type: functional; settings: 504 h
Spodoptera frugiperda [21] = assay: Antifeedant activity against larvae of Spodoptera frugiperda (fall armyworm) assessed reduction of adult emergence at 50 ppm after 21 days relative to control; assay type: functional; design: scale not given: the % may be the effect or the level left
Spodoptera frugiperda [22] = assay: Antifeedant activity against larvae of Spodoptera frugiperda (fall armyworm) assessed reduction of pupation at 20 ppm after 21 days relative to control; assay type: functional; design: scale not given: the % may be the effect or the level left
Spodoptera frugiperda [23] = assay: Antifeedant activity against larvae of Spodoptera frugiperda (fall armyworm) assessed reduction of pupation at 50 ppm after 21 days relative to control; assay type: functional; design: scale not given: the % may be the effect or the level left
Drosophila melanogaster [24] = assay: Antifeedant activity against larvae of Drosophila melanogaster at 10 ug/ml after 12 to 24 hr; assay type: functional
Spodoptera frugiperda [25] = assay: Insecticidal activity against larvae of Spodoptera frugiperda (fall armyworm) assessed growth index at 10 ppm; assay type: functional
Drosophila melanogaster [26] = assay: Antifeedant activity against larvae of Drosophila melanogaster at 50 ug/ml after 12 to 24 hr; assay type: functional
Spodoptera frugiperda [27] = assay: Antifeedant activity against larvae of Spodoptera frugiperda (fall armyworm) assessed reduction of pupation at 10 ppm after 21 days relative to control; assay type: functional; design: scale not given: the % may be the effect or the level left
Drosophila melanogaster [28] = assay: Insecticidal activity against larvae of Drosophila melanogaster assessed as mortality at 20 ug/ml after 72 hr by not choice test; assay type: functional
Spodoptera frugiperda [29] = assay: Antifeedant activity against larvae of Spodoptera frugiperda (fall armyworm) assessed reduction of weight gain at 10 ppm after 21 days relative to control; assay type: functional; design: scale not given: the % may be the effect or the level left
Spodoptera frugiperda [30] = assay: Antifeedant activity against larvae of Spodoptera frugiperda (fall armyworm) assessed reduction of weight gain at 50 ppm after 21 days relative to control; assay type: functional; design: scale not given: the % may be the effect or the level left
Spodoptera frugiperda [31] = assay: Insecticidal activity against larvae of Spodoptera frugiperda (fall armyworm) assessed growth index at 10 ppm relative to control; assay type: functional
Spodoptera frugiperda [32] = assay: Insecticidal activity against larvae of Spodoptera frugiperda (fall armyworm) assessed induction of prothetely appearance of precocious pupal structures in larvae at 50 ug/ml, po after 48 to 72 hr; assay type: functional, organism-based
Drosophila melanogaster [33] = assay: Insecticidal activity against larvae of Drosophila melanogaster assessed as mortality after 72 hr by not choice test; assay type: functional
Drosophila melanogaster [34] = assay: Insecticidal activity against larvae of Drosophila melanogaster assessed as mortality at 100 ug/ml after 72 hr by not choice test; assay type: functional
Spodoptera frugiperda [35] = assay: Antifeedant activity against larvae of Spodoptera frugiperda (fall armyworm) assessed reduction of pupation at 35 ppm after 21 days relative to control; assay type: functional; design: scale not given: the % may be the effect or the level left
Spodoptera frugiperda [36] = assay: Insecticidal activity against larvae of Spodoptera frugiperda (fall armyworm) assessed growth index at 35 ppm relative to control; assay type: functional
Spodoptera frugiperda [37] = assay: Insecticidal activity against larvae of Spodoptera frugiperda (fall armyworm) assessed growth index at 50 ppm relative to control; assay type: functional
Spodoptera frugiperda [38] = assay: Antifeedant activity against larvae of Spodoptera frugiperda (fall armyworm) assessed reduction of adult emergence at 35 ppm after 21 days relative to control; assay type: functional; design: scale not given: the % may be the effect or the level left
Spodoptera frugiperda [39] = assay: Insecticidal activity against larvae of Spodoptera frugiperda (fall armyworm) assessed inhibition of ecdysis at 25 ug/ml, po after 21 days; assay type: functional, organism-based
Spodoptera frugiperda [40] = assay: Antifeedant activity against larvae of Spodoptera frugiperda (fall armyworm) assessed reduction of adult emergence at 20 ppm after 21 days relative to control; assay type: functional; design: scale not given: the % may be the effect or the level left
Spodoptera frugiperda [41] = assay: Antifeedant activity against larvae of Spodoptera frugiperda (fall armyworm) assessed reduction of weight gain at 25 ppm after 21 days relative to control; assay type: functional; design: scale not given: the % may be the effect or the level left
Spodoptera frugiperda [42] = assay: Antifeedant activity against larvae of Spodoptera frugiperda (fall armyworm) assessed reduction of adult emergence at 25 ppm after 21 days relative to control; assay type: functional; design: scale not given: the % may be the effect or the level left
Spodoptera frugiperda [43] = assay: Insecticidal activity against larvae of Spodoptera frugiperda (fall armyworm) assessed mortality at 25 ppm after 21 days relative to control; assay type: functional; settings: 504 h
Spodoptera frugiperda [44] = assay: Antifeedant activity against larvae of Spodoptera frugiperda (fall armyworm) assessed reduction of pupation at 25 ppm after 21 days relative to control; assay type: functional; design: scale not given: the % may be the effect or the level left

SMILES	AFI (Drosophila melanogaster [2]) [%]	Ratio (Spodoptera frugiperda [4])	mortality at 50 µg/mL (Drosophila melanogaster [5]) [%]	AFI (Spodoptera frugiperda [6]) [%]	Growth_index (Spodoptera frugiperda [9])	AFI (Spodoptera frugiperda [10]) [%]	mortality at 10 ppm (Spodoptera frugiperda [11]) [%]	AFI (Spodoptera frugiperda [12]) [%]	Activity (Spodoptera frugiperda [15]) [%]	AFI (Drosophila melanogaster [16]) [%]	Growth_index (Spodoptera frugiperda [17])	AFI (Spodoptera frugiperda [18]) [%]	AFI (Spodoptera frugiperda [19]) [%]	mortality at 50 ppm (Spodoptera frugiperda [20]) [%]	Activity (Spodoptera frugiperda [21]) [%]	Activity (Spodoptera frugiperda [23]) [%]	AFI (Drosophila melanogaster [24]) [%]	Growth_index (Spodoptera frugiperda [25])	AFI (Drosophila melanogaster [26]) [%]	Activity (Spodoptera frugiperda [27]) [%]	also measured
C[C@@H]1O[C@@H](O[C@@H]2[C@@H](O)[C@H](OCCc3ccc(O)c(O)c3)O[C@H](CO)[C@H]2OC(=O)/C=C/c2ccc(O)c(O)c2)[C@H](O)[C@H](O)[C@H]1O [ACETOSIDE]	100	0.45	100	100	0.41	100	81.3	96.7	0	100	0.07	78.9	88.2	100	0	0	89	0.66	100	3.1	mortality at 20 ppm (Spodoptera frugiperda [1]): 100%; Growth_index (Spodoptera frugiperda [3]): 0.09; Activity (Spodoptera frugiperda [7]): 1.35%; Activity (Spodoptera frugiperda [8]): 0%; mortality at 35 ppm (Spodoptera frugiperda [13]): 100%; Activity (Spodoptera frugiperda [14]): Active; Activity (Spodoptera frugiperda [22]): 3.1%; mortality at 20 µg/mL (Drosophila melanogaster [28]): 92%; Activity (Spodoptera frugiperda [29]): 2.15%; Activity (Spodoptera frugiperda [30]): 0%; Ratio (Spodoptera frugiperda [31]): 0.67; Activity (Spodoptera frugiperda [32]): Active; LC50 (Drosophila melanogaster [33]): 8.08 µg/mL (≈ 12.9 µM); mortality at 100 µg/mL (Drosophila melanogaster [34]): 100%; Activity (Spodoptera frugiperda [35]): 0%; Ratio (Spodoptera frugiperda [36]): 0.15; Ratio (Spodoptera frugiperda [37]): 0.1; Activity (Spodoptera frugiperda [38]): 0%; inhibition (Spodoptera frugiperda [39]): Active; Activity (Spodoptera frugiperda [40]): 0%
CC(=O)O[C@@H]1C[C@H]2C(C)(C)C(=O)C=C[C@]2(C)[C@H]2CC[C@@]3(C)[C@H](c4ccoc4)OC(=O)[C@H]4O[C@]43[C@@]21C [GEDUNIN]	98	0.55	100	100	0.51	89.9	11.6	85.6	15	100	0.1	68.8	74.5	100	0	0	81	0.77	100	54.2	Activity (Spodoptera frugiperda [41]): 1.35%; Activity (Spodoptera frugiperda [42]): 13%; mortality at 20 µg/mL (Drosophila melanogaster [28]): 87.1%; Activity (Spodoptera frugiperda [29]): 2.05%; mortality at 25 ppm (Spodoptera frugiperda [43]): 8.4%; Activity (Spodoptera frugiperda [30]): 0%; Activity (Spodoptera frugiperda [44]): 41.7%; Ratio (Spodoptera frugiperda [31]): 0.71; LC50 (Drosophila melanogaster [33]): 11.9 µg/mL (≈ 24.7 µM); mortality at 100 µg/mL (Drosophila melanogaster [34]): 100%; Ratio (Spodoptera frugiperda [37]): 0.11
